# System: NZB×NZW F1 mice
# Experiment: mIL-2/CD25 and prednisolone combination in NZB×NZW mice
# Type: in vivo, mouse
# Procedure: The effect of mIL-2/CD25 on Tregs was also assessed in the spleen at completion of this study (after 14 weeks of treatment).
# At completion of study, one kidney from each mouse was collected in RNA Later and then homogenized in mRNA Catcher Lysis Buffer with a Tissue Lyser. mRNA was purified using mRNA Catcher PLUS according to the manufacturer's protocol (Invitrogen). cDNA was synthesized using SuperScript II with random hexamer primers. PCR was performed with SYBR Green Master Mix (Invitrogen). Relative quantification analysis was determined using the 2-ΔΔCT method using cyclophilin (PPIA) as the housekeeping gene. Expression of inflammatory cytokine and leukocyte surface receptors were analyzed.
compound,measurement,setting,value
"C[C@]12C=CC(=O)C=C1CC[C@@H]1[C@@H]2[C@@H](O)C[C@@]2(C)[C@H]1CC[C@]2(O)C(=O)CO [prednisolone, Prednisolone]",percentage of Tregs and CD25 MFI on Tregs in the spleen,after 14 weeks of treatment,did not alter
same,proteinuria levels and anti-dsDNA titers,"prednisolone 1 mg/kg p.o. 3×/week, mIL-2/CD25 0.1 mg/kg s.c. 2×/week, or both, 14 weeks",partial protection

# Reference: patent publication US20240325495A1, “FUSION PROTEINS FOR THE TREATMENT OF DISEASE” (Bristol-Myers Squibb Company, priority 2020, published 2024)
